The data set concerns rodent carcinogenicity bioassays, tumor incidence. The data set is described as follows: CCRIS carcinogenicity studies. The gist of the method: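 Archive of carcinogenicity, mutagenicity, tumor promotion and tumor inhibition results drawn from journals, NCI reports and other sources, expert-reviewed; covers 1985-2011 and is no longer updated.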

Carcinogen call data for 8 compounds are collected here from PubChem BioAssay AID1259411 (Chemical Carcinogenesis Research Information System (CCRIS), 2018).

Molecules are shown by their SMILES. The source made the active and inactive calls. No rule for the calls is given here.

Turning to `OCC1CO1` (configuration not stated), the carcinogen call is, setting by setting: (Species: MOUSE, Strain/Sex: B6C3F1/FEMALE, Route: GAVAGE, Dose: 0, 25, 50 MG/KG IN DISTILLED WATER 5 D/WK FOR 103 WK (STUDY DURATION: 105 WK), Dose: 0, 25, 50 MG/KG IN DISTILLED WATER 5 D/WK FOR 103 WK (STUDY DURATION: 105 WK), Tumor Site: Type of Lesion: SUBCUTANEOUS TISSUE: SARCOMA, SARCOMA OR FIBROSARCOMA, MAMMARY GLAND: ADENOCARCINOMA, ADENOMA OR FIBROADENOMA OR ADENOCA) “active; positive”; (Species: MOUSE, Strain/Sex: B6C3F1/MALE, Route: GAVAGE, Dose: 0, 25, 50 MG/KG IN DISTILLED WATER 5 D/WK FOR 103 WK (STUDY DURATION: 105 WK), Dose: 0, 25, 50 MG/KG IN DISTILLED WATER 5 D/WK FOR 103 WK (STUDY DURATION: 105 WK), Tumor Site: Type of Lesion: SKIN: SQUAMOUS CELL PAPILLOMA, LUNG: ALVEOLAR/BRONCHIOLAR ADENOMA OR CARCINOMA, LIVER: HEPATOCELLULAR ADENOMA, HEPATOCEL, Tumor Site: Type of Lesion: SKIN: SQUAMOUS CELL PAPILLOMA, LUNG: ALVEOLAR/BRONCHIOLAR ADENOMA OR CARCINOMA, LIVER: HEPATOCELLULAR ADENOMA, HEPATOCEL) “active; positive”; (Species: RAT, Strain/Sex: F344/FEMALE, Route: GAVAGE, Dose: 0, 37.5, 75 MG/KG IN DISTILLED WATER 5 D/WK FOR 103 WK (STUDY DURATION: 104 WK), Dose: 0, 37.5, 75 MG/KG IN DISTILLED WATER 5 D/WK FOR 103 WK (STUDY DURATION: 104 WK), Tumor Site: Type of Lesion: HEMATOPOIETIC SYSTEM: MONONUCLEAR CELL LEUKEMIA, ORAL CAVITY (MOUTH OR TONGUE): SQUAMOUS CELL PAPILLOMA OR CARCINOMA, FO, Tumor Site: Type of Lesion: HEMATOPOIETIC SYSTEM: MONONUCLEAR CELL LEUKEMIA, ORAL CAVITY (MOUTH OR TONGUE): SQUAMOUS CELL PAPILLOMA OR CARCINOMA, FO) “active; positive”; (Species: RAT, Strain/Sex: F344/MALE, Route: GAVAGE, Dose: 0, 37.5, 75 MG/KG IN DISTILLED WATER 5 D/WK FOR 103 WK (STUDY DURATION: 104 WK), Dose: 0, 37.5, 75 MG/KG IN DISTILLED WATER 5 D/WK FOR 103 WK (STUDY DURATION: 104 WK), Tumor Site: Type of Lesion: SKIN: SEBACEOUS GLAND ADENOMA OR BASAL CELL TUMOR OR SEBACEOUS GLAND ADENOCARCINOMA, FORESTOMACH: SQUAMOUS CELL PAPILLOM) “active; positive”.
Turning to `O=C(O)[C@@H](O)[C@@H](O)[C@H](O)[C@@H](O)C(=O)[O-].O=C(O)[C@@H](O)[C@@H](O)[C@H](O)[C@@H](O)C(=O)[O-].O=C(O)[C@@H](O)[C@@H](O)[C@H](O)[C@@H](O)C(=O)[O-].[Fe+3]`, the carcinogen call (Species: RAT, Strain/Sex: WISTAR/MALE, Route: INTRAPERITONEAL, Dose: 0, 5 MG/KG IN GLUCOSE SOLUTION 1/D 6 D/WK FOR 3 MO (STUDY DURATION: 1 YR, 3 MO), Tumor Site: Type of Lesion: PERITONEAL CAVITY: MESOTHELIOMA) was “active; positive”.
Turning to `O=c1c(O)c(-c2ccc(O)c(O)c2)oc2cc(O)cc(O)c12`, the carcinogen call was “inactive; negative” (Species: RAT, Strain/Sex: F344/FEMALE, Route: ORAL, Dose: 0, 0.1, 0.2% IN DIET FOR DURATION OF STUDY (STUDY DURATION: 64 WK), Dose: 0, 0.1, 0.2% IN DIET FOR DURATION OF STUDY (STUDY DURATION: 64 WK)); “inactive; negative” (Species: RAT, Strain/Sex: F344/FEMALE, Route: ORAL, Dose: 0, 1.25, 5.0% IN DIET FOR 104 WK (STUDY DURATION: 112 WK), Dose: 0, 1.25, 5.0% IN DIET FOR 104 WK (STUDY DURATION: 112 WK)); “inactive; negative” (Species: RAT, Strain/Sex: F344/FEMALE, Route: ORAL, Dose: 0, 1,000, 10,000, 40,000 PPM IN DIET FOR 104 WK (STUDY DURATION: 104 WK), Dose: 0, 1,000, 10,000, 40,000 PPM IN DIET FOR 104 WK (STUDY DURATION: 104 WK)); “inactive; negative” (Species: RAT, Strain/Sex: F344/MALE, Route: ORAL, Dose: 0, 0.1, 0.2% IN DIET FOR DURATION OF STUDY (STUDY DURATION: 64 WK), Dose: 0, 0.1, 0.2% IN DIET FOR DURATION OF STUDY (STUDY DURATION: 64 WK)); “inactive; negative” (Species: RAT, Strain/Sex: F344/MALE, Route: ORAL, Dose: 0, 1.25, 5.0% IN DIET FOR 104 WK (STUDY DURATION: 112 WK), Dose: 0, 1.25, 5.0% IN DIET FOR 104 WK (STUDY DURATION: 112 WK)); “active; positive” (Species: RAT, Strain/Sex: F344/MALE, Route: ORAL, Dose: 0, 1,000, 10,000, 40,000 PPM IN DIET FOR 104 WK (STUDY DURATION: 104 WK), Dose: 0, 1,000, 10,000, 40,000 PPM IN DIET FOR 104 WK (STUDY DURATION: 104 WK), Tumor Site: Type of Lesion: KIDNEY (RENAL TUBULE): ADENOMA).
Take `O=NN1CC=CC[C@H]1c1cccnc1`: the carcinogen call is, setting by setting: (Species: RAT, Strain/Sex: F344/FEMALE, Route: SUBCUTANEOUS, Dose: 0, 1, 3, 9 MMOL/KG BW (TOTAL DOSE) WITH SUBDOSES GIVEN 3/WK FOR 20 WK WITH A 2 WK INTERRUPTION AFTER 7 WK (STUDY DURATIO, Dose: 0, 1, 3, 9 MMOL/KG BW (TOTAL DOSE) WITH SUBDOSES GIVEN 3/WK FOR 20 WK WITH A 2 WK INTERRUPTION AFTER 7 WK (STUDY DURATIO) “inactive; negative”; (Species: RAT, Strain/Sex: F344/MALE, Route: SUBCUTANEOUS, Dose: 0, 1, 3, 9 MMOL/KG BW (TOTAL DOSE) WITH SUBDOSES GIVEN 3/WK FOR 20 WK WITH A 2 WK INTERRUPTION AFTER 7 WK (STUDY DURATIO, Dose: 0, 1, 3, 9 MMOL/KG BW (TOTAL DOSE) WITH SUBDOSES GIVEN 3/WK FOR 20 WK WITH A 2 WK INTERRUPTION AFTER 7 WK (STUDY DURATIO) “inactive; negative”.
On to `c1ccc2c(c1)cc1ccc3cccc4c5ccccc5c2c1c34`, for which the carcinogen call (Species: MOUSE, Route: DERMAL, Tumor Site: Type of Lesion: INTEGUMENTARY SYSTEM (SKIN)) was “active; positive”; the carcinogen call (Species: MOUSE, Route: SUBCUTANEOUS, Tumor Site: Type of Lesion: INJECTION SITE) was “active; positive”; the carcinogen call (Species: MOUSE, Strain/Sex: SWISS/FEMALE, Route: DERMAL, Dose: 0, 1, 4, 8 NMOL IN 100 µL ACETONE 2/WK FOR 40 WK (STUDY DURATION: 48 WK), Dose: 0, 1, 4, 8 NMOL IN 100 µL ACETONE 2/WK FOR 40 WK (STUDY DURATION: 48 WK), Tumor Site: Type of Lesion: SKIN: TUMORS) is “active; positive”; the carcinogen call (Species: Mouse, Strain/Sex: B6129SF1/J v 129S1/SvImJ crosses, Route: Transplacental, Dose: 15 mg/kg bw in corn oil to dams on day 18 of gestation, study duration 10 months, Tumor Site: Type of Lesion: Lung and liver tumors) was “active; positive”; the carcinogen call (Species: Mouse, Strain/Sex: B6129SF1x129S1/Svlmj/Male and female (215 in 4 groups), Route: In utero, nursing, or in utero and nursing, Dose: 15 mg/kg, gavage to pregnant B6129SF1 females, once on day 17 of pregnancy (Study duration 10 months from birth), Tumor Site: Type of Lesion: Lung) is “active; positive (surviving offspring exhibited 100% incidence with multiplicity of appr”; the carcinogen call (Species: RAT, Strain/Sex: SPRAGUE-DAWLEY/FEMALE, Route: INJECTION, Dose: 0, 0.25, 1 UMOL PER MAMMARY GLAND (STUDY DURATION: 24 WK), Dose: 0, 0.25, 1 UMOL PER MAMMARY GLAND (STUDY DURATION: 24 WK), Tumor Site: Type of Lesion: MAMMARY GLAND: TUMOR) is “active; positive”.
In the case of `Cc1ccc2cc3c(ccc4ccccc43)c3c2c1C=C3`, where the note is “Species: MOUSE, Strain/Sex: SWISS/FEMALE, Route: DERMAL, Dose: 0.2 UMOL IN 33.4 µL ACETONE TO SHAVED DORSAL SKIN 2/WK FOR 20 WK (STUDY DURATION: 52 WK), Tumor Site: Type of Lesion: SKIN: PAPILLOMA, KERATOACANTHOMA, EPIDERMAL CARCINOMA”, the carcinogen call is “active; positive”.
As to `Cc1cnc2ccc3c(nc(NO)n3C)c2n1`, the carcinogen call (Species: RAT, Strain/Sex: ACI/SEG/MALE, Route: INTRAPERITONEAL, Dose: 0, 50 UMOL/KG BW 2X/WK FOR 10 WK BEGINNING AT 3 D OF AGE (STUDY DURATION: 68 WK), Tumor Site: Type of Lesion: SOFT TISSUE: TUMOR) was “active; positive”.
For the compound `CCC(CC)[N+](=O)[O-]`, the carcinogen call (Species: RAT, Strain/Sex: F344/MALE, Route: GAVAGE, Dose: 0, 2 MMOL/KG BW 1/WK FOR 12 WK THEN 1 MMOL/KG FOR 38 WK (STUDY DURATION: 83 WK), Tumor Site: Type of Lesion: LIVER: CARCINOMA) is “active; positive”.
